Read-outs that look alike come from different tables or passages of the source.
Legend:
Assay type in all cases: in vivo
[1] = test system: Pseudoperonospora cubensis; assay: Cucumber Downy Mildew (PSPECU), foliar spray, percent disease control; settings: read-out: PSPECU percent control
Method: The activity of the compounds as effective fungicides was determined by applying the compounds to plants and observing control of fungal disease. The compounds were formulated at 200 ppm in 10 vol. % acetone plus 90 vol. % Triton X water (deionized water 99.99 wt %+0.01 wt % Triton X100), giving a “formulated test compound.” In a few cases, compounds were formulated at 75 or 8.3 ppm rather than 200 ppm in 10 vol. % acetone plus 90 vol. % Triton X water (deionized water 99.99 wt. %+0.01 wt. % Triton X100), giving a “formulated test compound.” Formulated test compounds were applied to plants using a turn table sprayer fitted with two opposing air atomization nozzles which delivered approximately 1500 L/ha of spray volume. All plants were inoculated with spores of the fungus the day after treatment, then incubated in an environment conducive to disease development. Disease severity was evaluated 4 to 15 days later, depending on the disease and the speed of disease development. The following experiments were performed in the laboratory to determine the fungicidal efficacy of the compounds of the invention. Cucumber Downy Mildew (causal agent Pseudoperonospora cubensis; Bayer code […]): Cucumber plants (variety Bush Champion) were grown from seed in a soil-less peat-based potting mixture (Metromix) until the first true leaf was 20-80% expanded. Each pot contained 1 seedling. These plants were sprayed until wet with the formulated test compound. On the following day, the leaves were inoculated with an aqueous suspension of downy mildew sporangia and the plants were kept in high humidity for one day to permit sporangia to germinate and infect the leaf. The plants were then incubated in a growth chamber until disease developed on untreated control plants. […] The effectiveness of the test compounds at controlling disease when sprayed on leaves was determined by assessing the severity of disease on treated plants, then converting the severity to percent control based on the level of disease on untreated, inoculated plants. Data are the level (in percent) at which the given disease was controlled when the given compound was applied to the foliage of the plants at 200 ppm. In a few cases (noted in the table) the compound was applied to the plants at 75 ppm or 8.3 ppm.

[2] = test system: Cochliobolus sativus; assay: Spot Blotch of Wheat (COCHSA), foliar spray, percent disease control
[3] = test system: Colletotricum lagenarium; assay: Cucumber Anthracnose (COLLLA), foliar spray, percent disease control
Method: The activity of the compounds as effective fungicides was determined by applying the compounds to plants and observing control of fungal disease. The compounds were formulated at 200 ppm in 10 vol. % acetone plus 90 vol. % Triton X water (deionized water 99.99 wt %+0.01 wt % Triton X100), giving a “formulated test compound.” In a few cases, compounds were formulated at 75 or 8.3 ppm rather than 200 ppm in 10 vol. % acetone plus 90 vol. % Triton X water (deionized water 99.99 wt. %+0.01 wt. % Triton X100), giving a “formulated test compound.” Formulated test compounds were applied to plants using a turn table sprayer fitted with two opposing air atomization nozzles which delivered approximately 1500 L/ha of spray volume. All plants were inoculated with spores of the fungus the day after treatment, then incubated in an environment conducive to disease development. Disease severity was evaluated 4 to 15 days later, depending on the disease and the speed of disease development. The following experiments were performed in the laboratory to determine the fungicidal efficacy of the compounds of the invention. Cucumber Anthracnose (causal agent Colletotricum lagenarium; Bayer code COLLLA): Cucumber plants (variety Bush Champion) were grown from seed in a soil-less peat-based potting mixture (Metromix) until the first true leaf was 20-80% expanded. Each pot contained 1 seedling. These plants were sprayed until wet with the formulated test compound. On the following day, the leaves were inoculated with an aqueous spore suspension of Colletotricum lagenarium and the plants were kept in high humidity for one day to permit spores to germinate and infect the leaf. The plants were then transferred to a growth chamber until disease developed on untreated control plants. […] The effectiveness of the test compounds at controlling disease when sprayed on leaves was determined by assessing the severity of disease on treated plants, then converting the severity to percent control based on the level of disease on untreated, inoculated plants. Data are the level (in percent) at which the given disease was controlled when the given compound was applied to the foliage of the plants at 200 ppm. In a few cases (noted in the table) the compound was applied to the plants at 75 ppm or 8.3 ppm.

[4] = Bipolaris sorokiniana, foliar; read-out: COCHSA percent control

SMILES | pest or weed control at 200 µg/mL ([1]; foliar) | pest or weed control at 200 µg/mL [2, 4] | pest or weed control at 200 µg/mL ([3]; foliar) | pest or weed control at 200 µg/mL ([1]; foliar spray) | pest or weed control at 200 µg/mL ([2]; Bipolaris sorokiniana; foliar spray; read-out: COCHSA percent control) | pest or weed control at 200 µg/mL ([3]; foliar spray) | pest or weed control at 200 µg/mL ([2]; Bipolaris sorokiniana, foliar, read-out: COCHSA percent control)
Oc1ccc(OCCNc2ncnc3nccnc23)cc1 [Compound 80] | 0 to 49% | 0 to 49% | 0 to 49% | – | – | – | –
CC(Nc1ncnc2nccnc12)c1ccc(O)cc1 (stereo not drawn) [Compound 65, 4-[1-(Pteridin-4-ylamino)-ethyl]-phenol] | 50 to 79% | 0 to 49% | 0 to 49% | – | – | – | –
Cc1cc(CCNc2ncnc3nccnc23)ccc1O [Compound 174] | 0 to 49% | 0 to 49% | 0 to 49% | – | – | – | –
O=C(c1ccnc(Oc2ccc(CCNc3ncnc4nccnc34)cc2)c1)C1CC1 [Compound 64] | 80 to 100% | 0 to 49% | 0 to 49% | – | – | – | –
COc1cc(C(F)(F)F)cc(Oc2ccc(CCNc3ncnc4nccnc34)cc2C)n1 [Compound 167] | 80 to 100% | 0 to 49% | 0 to 49% | – | – | – | –
N#Cc1ccnc(Oc2ccc(OCCNc3ncnc4nccnc34)cc2)c1 [Compound 85] | 80 to 100% | 0 to 49% | 0 to 49% | – | – | – | –
Oc1ccc(CCNc2ncnc3nccnc23)cc1F [Compound 177] | 0 to 49% | 0 to 49% | 0 to 49% | – | – | – | –
COc1ccc(C(C)Nc2nc(C)nc3nccnc23)cc1 (stereo not drawn) [Compound 19, [1-(4-Methoxyphenyl)ethyl]-2-methylpteridin-4-yl-amine] | 0 to 49% | 0 to 49% | 0 to 49% | – | – | – | –
CC(Nc1ncnc2nccnc12)c1ccccc1 (stereo not drawn) [Compound 9] | 80 to 100% | 0 to 49% | 0 to 49% | – | – | – | –
FC(F)(F)c1ccc(Oc2cccc(OCCNc3ncnc4nccnc34)c2)nc1 [Compound 87] | 80 to 100% | 0 to 49% | 0 to 49% | – | – | – | –
CC(C)(C)c1cc[n+]([O-])c(Oc2ccc(CCNc3ncnc4nccnc34)cc2)c1 [Compound 172, {2-[4-(4-tert-Butyl-1-oxypyridin-2-yloxy)-phenyl]-ethyl}-pteridin-4-ylamine] | 80 to 100% | 0 to 49% | 0 to 49% | – | – | – | –
CC(F)(F)c1ccnc(Oc2ccc(CCNc3ncnc4nccnc34)cc2O)c1 [Compound 197, 2-[4-(1,1-Difluoroethyl)-pyridin-2-yloxy]-5-[2-(pteridin-4-ylamino)-ethyl]-phenol] | 80 to 100% | 0 to 49% | 0 to 49% | – | – | – | –
COc1nsc(Oc2ccc(CCNc3ncnc4nccnc34)cc2)n1 [Compound 21] | 50 to 79% | 0 to 49% | 50 to 79% | – | – | – | –
CC(C)Cc1nnc(Oc2ccc(CCNc3ncnc4nccnc34)cc2)s1 [Compound 26] | 80 to 100% | 0 to 49% | 0 to 49% | – | – | – | –
FC(F)(F)c1ccnc(Cl)c1Oc1ccc(CCNc2ncnc3nccnc23)cc1 [Compound 56] | 50 to 79% | 0 to 49% | 0 to 49% | – | – | – | –
Cc1cc(C(F)(F)F)cc(Oc2ccc(CCNc3ncnc4nccnc34)cc2)n1 [Compound 69] | 80 to 100% | 0 to 49% | 80 to 100% | – | – | – | –
Cc1cc(Oc2cc(C(F)(F)F)ccn2)ccc1OCCNc1ncnc2nccnc12 [Compound 201] | – | – | – | 80 to 100% | 0 to 49% | 0 to 49% | –

SMILES | pest or weed control at 200 µg/mL ([1]; foliar) | pest or weed control at 200 µg/mL [2, 4] | pest or weed control at 200 µg/mL ([3]; foliar) | pest or weed control at 200 µg/mL ([1]; foliar spray) | pest or weed control at 200 µg/mL ([2]; Bipolaris sorokiniana; foliar spray; read-out: COCHSA percent control) | pest or weed control at 200 µg/mL ([3]; foliar spray) | pest or weed control at 200 µg/mL ([2]; Bipolaris sorokiniana, foliar, read-out: COCHSA percent control)
[O-][n+]1ccnc(Oc2ccc(CCNc3ncnc4nccnc34)cc2)c1 [Compound 29] | 80 to 100% | 0 to 49% | 0 to 49% | – | – | – | –
COc1ccc(CCNc2ncnc3nccnc23)cc1Cl [Compound 158] | 0 to 49% | 0 to 49% | 0 to 49% | – | – | – | –
FC(F)(F)c1ccnc(Oc2ccc(CCNc3ncnc4nccnc34)cc2)n1 [Compound 3] | 80 to 100% | 0 to 49% | 50 to 79% | – | – | – | –
Fc1nc(C(F)(F)F)c(F)c(Oc2ccc(CCNc3ncnc4nccnc34)cc2)c1F [Compound 89] | 80 to 100% | 0 to 49% | 0 to 49% | – | – | – | –
Clc1nccc(Oc2ccc(CCNc3ncnc4nccnc34)cc2)n1 [Compound 24] | 80 to 100% | 0 to 49% | 50 to 79% | – | – | – | –
Fc1cnc(C(F)(F)F)c(F)c1Oc1cccc(CCNc2ncnc3nccnc23)c1 [Compound 71] | 0 to 49% | 0 to 49% | 0 to 49% | – | – | – | –
Oc1ccc(CCNc2ncnc3nccnc23)cc1 [Compound 4, 4-[2-(Pteridin-4-ylamino)-ethyl]-phenol] | 0 to 49% | 0 to 49% | 0 to 49% | – | – | – | –
CC(C)(C)OC(=O)N(CCc1ccc(O[Si](C)(C)C(C)(C)C)cc1)c1ncnc2nccnc12 [Compound 134, {2-[4-(tert-Butyldimethylsilanyloxy)-phenyl]-ethyl}-pteridin-4-yl-carbamic acid tert-butyl ester] | 0 to 49% | – | 0 to 49% | – | – | – | 0 to 49%
FC(F)(F)c1ccc(Oc2cccc(CCNc3ncnc4nccnc34)c2)nc1 [Compound 47] | 80 to 100% | 0 to 49% | 50 to 79% | – | – | – | –
COC(=O)c1ccnc(Oc2ccc(CCNc3ncnc4nccnc34)cc2)c1 [Compound 135] | 80 to 100% | 0 to 49% | 0 to 49% | – | – | – | –
CC(F)(F)c1cc[n+]([O-])c(Oc2ccc(CCNc3ncnc4nccnc34)cc2)c1 [Compound 184, (2-{4-[4-(1,1-difluoroethyl)-1-oxy-pyridin-2-yloxy]-phenyl}-ethyl)-pteridin-4-yl-amine] | 80 to 100% | 0 to 49% | 50 to 79% | – | – | – | –
c1cc(-c2nnc(Oc3ccc(CCNc4ncnc5nccnc45)cc3)s2)ccn1 [Compound 23] | 0 to 49% | 0 to 49% | 0 to 49% | – | – | – | –
Cc1c(CCNc2ncnc3nccnc23)ccc(Oc2cncc(Cl)c2C#N)c1C [Compound 147] | 80 to 100% | 0 to 49% | 0 to 49% | – | – | – | –
FC(F)(F)c1ccnc(Oc2cccc(CCNc3ncnc4nccnc34)c2)c1 [Compound 46] | 80 to 100% | 0 to 49% | 80 to 100% | – | – | – | –
Oc1ccc(CCNc2ncnc3ncc(Cl)nc23)cc1 [Compound 73] | 0 to 49% | 0 to 49% | 0 to 49% | – | – | – | –
Fc1cccc(Oc2ccc(OCCNc3ncnc4nccnc34)cc2)n1 [Compound 159] | 80 to 100% | 0 to 49% | 0 to 49% | – | – | – | –
COc1ccnc(Oc2ccc(CCNc3ncnc4nccnc34)cc2)n1 [Compound 16] | 80 to 100% | 0 to 49% | 0 to 49% | – | – | – | –
